Measured values as given in PubChem BioAssay (NCI).
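Interpolation was linear, between the two tested concentrations surrounding the appropriate level; five concentrations were tested over 48 hours in 96-well plates. At the TGI there is no net growth.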

Tests used:
Experiment in all cases: inhibition of tumour cell growth, NCI panel, 48 h
SF-268 CNS = test system: SF-268 CNS
HOP-62 NSCLC = test system: HOP-62 NSCLC
HS 578T breast = test system: HS 578T breast
CAKI-1 renal = test system: CAKI-1 renal
PC-3 prostate = test system: PC-3 prostate
SN12C renal = test system: SN12C renal
SK-MEL-2 melanoma = test system: SK-MEL-2 melanoma
MDA-MB-435 = test system: MDA-MB-435
IGROV1 ovarian = test system: IGROV1 ovarian
KM12 colon = test system: KM12 colon
OVCAR-8 ovarian = test system: OVCAR-8 ovarian
UACC-62 melanoma = test system: UACC-62 melanoma
NCI-H226 lung = test system: NCI-H226 lung
CCRF-CEM leukemia = test system: CCRF-CEM leukemia
K-562 leukemia = test system: K-562 leukemia
SK-MEL-5 melanoma = test system: SK-MEL-5 melanoma
EKVX NSCLC = test system: EKVX NSCLC
COLO 205 colon = test system: COLO 205 colon
SK-MEL-28 melanoma = test system: SK-MEL-28 melanoma
RXF 393 renal = test system: RXF 393 renal
NCI-H460 lung = test system: NCI-H460 lung
A498 renal = test system: A498 renal
SK-OV-3 ovarian = test system: SK-OV-3 ovarian
HCC-2998 colon = test system: HCC-2998 colon
DU-145 prostate = test system: DU-145 prostate
SW-620 colon = test system: SW-620 colon
MDA-N = test system: MDA-N
TK-10 renal = test system: TK-10 renal
MDA-MB-231 breast = test system: MDA-MB-231 breast
SR leukemia = test system: SR leukemia
MOLT-4 leukemia = test system: MOLT-4 leukemia
RPMI-8226 leukemia = test system: RPMI-8226 leukemia
SNB-75 CNS = test system: SNB-75 CNS
BT-549 breast = test system: BT-549 breast
OVCAR-3 ovarian = test system: OVCAR-3 ovarian
A549 NSCLC = test system: A549 NSCLC
SF-295 CNS = test system: SF-295 CNS
UACC-257 melanoma = test system: UACC-257 melanoma
OVCAR-4 ovarian = test system: OVCAR-4 ovarian
U251 CNS = test system: U251 CNS
OVCAR-5 ovarian = test system: OVCAR-5 ovarian
HCT-15 colon = test system: HCT-15 colon
NCI-H522 lung = test system: NCI-H522 lung
MCF7 breast = test system: MCF7 breast
HCT-116 colon = test system: HCT-116 colon
SNB-19 CNS = test system: SNB-19 CNS
HT29 colon = test system: HT29 colon
UO-31 renal = test system: UO-31 renal
MALME-3M melanoma = test system: MALME-3M melanoma
786-0 renal = test system: 786-0 renal
T-47D breast = test system: T-47D breast
M14 melanoma = test system: M14 melanoma
LOX IMVI melanoma = test system: LOX IMVI melanoma
NCI/ADR-RES ovarian = test system: NCI/ADR-RES ovarian
ACHN renal = test system: ACHN renal
SF-539 CNS = test system: SF-539 CNS
HOP-92 NSCLC = test system: HOP-92 NSCLC
NCI-H23 lung = test system: NCI-H23 lung
HL-60(TB) leukemia = test system: HL-60(TB) leukemia

## O=c1onc2n1-c1ccc(Cl)cc1C(=S)N1CSCC21 (stereo unspecified)
SF-268 CNS
  TGI: 69.7 µM
HOP-62 NSCLC
  TGI: > 100 µM
HS 578T breast
  TGI: 53.9 µM
CAKI-1 renal
  TGI: > 100 µM
PC-3 prostate
  TGI: > 100 µM
SN12C renal
  TGI: 88.2 µM
SK-MEL-2 melanoma
  TGI: 69.6 µM
MDA-MB-435
  TGI: 23.8 µM
IGROV1 ovarian
  TGI: > 100 µM
KM12 colon
  TGI: 59.6 µM
OVCAR-8 ovarian
  TGI: 39.8 µM
UACC-62 melanoma
  TGI: > 100 µM
NCI-H226 lung
  TGI: 83.1 µM
CCRF-CEM leukemia
  TGI: > 100 µM
K-562 leukemia
  TGI: > 100 µM
SK-MEL-5 melanoma
  TGI: > 100 µM
EKVX NSCLC
  TGI: > 100 µM
COLO 205 colon
  TGI: 35.1 µM
SK-MEL-28 melanoma
  TGI: > 100 µM
RXF 393 renal
  TGI: 89.2 µM
NCI-H460 lung
  TGI: 40 µM
A498 renal
  TGI: 64 µM
SK-OV-3 ovarian
  TGI: 49.4 µM
HCC-2998 colon
  TGI: 35.4 µM
DU-145 prostate
  TGI: > 100 µM
SW-620 colon
  TGI: 47.7 µM
MDA-N
  TGI: 23.7 µM
TK-10 renal
  TGI: > 100 µM
MDA-MB-231 breast
  TGI: 41.8 µM
SR leukemia
  TGI: 48.1 µM
MOLT-4 leukemia
  TGI: > 100 µM
RPMI-8226 leukemia
  TGI: > 100 µM
SNB-75 CNS
  TGI: 91.9 µM
BT-549 breast
  TGI: 67.4 µM
OVCAR-3 ovarian
  TGI: > 100 µM
A549 NSCLC
  TGI: > 100 µM
SF-295 CNS
  TGI: 41.9 µM
UACC-257 melanoma
  TGI: > 100 µM
OVCAR-4 ovarian
  TGI: > 100 µM
U251 CNS
  TGI: 35.9 µM
OVCAR-5 ovarian
  TGI: > 100 µM
HCT-15 colon
  TGI: 95.3 µM
NCI-H522 lung
  TGI: 62.9 µM
MCF7 breast
  TGI: 96.9 µM
HCT-116 colon
  TGI: 95.7 µM
SNB-19 CNS
  TGI: 52.5 µM
HT29 colon
  TGI: 53.1 µM
UO-31 renal
  TGI: > 100 µM
MALME-3M melanoma
  TGI: > 100 µM
786-0 renal
  TGI: > 100 µM
T-47D breast
  TGI: > 100 µM
M14 melanoma
  TGI: 28.8 µM
LOX IMVI melanoma
  TGI: > 100 µM
NCI/ADR-RES ovarian
  TGI: 36.4 µM
ACHN renal
  TGI: > 100 µM

## COC(=O)C(CNC(=O)/C=C/c1ccc(OC)c(OC)c1)NC(=O)/C=C/c1ccc(OC)c(OC)c1 (stereo unspecified)
SF-268 CNS
  TGI: > 100 µM
HOP-62 NSCLC
  TGI: > 100 µM
HS 578T breast
  TGI: > 100 µM
CAKI-1 renal
  TGI: > 100 µM
PC-3 prostate
  TGI: > 100 µM
SN12C renal
  TGI: > 100 µM
SK-MEL-2 melanoma
  TGI: > 100 µM
MDA-MB-435
  TGI: > 100 µM
IGROV1 ovarian
  TGI: > 100 µM
KM12 colon
  TGI: > 100 µM
OVCAR-8 ovarian
  TGI: > 100 µM
UACC-62 melanoma
  TGI: > 100 µM
NCI-H226 lung
  TGI: > 100 µM
CCRF-CEM leukemia
  TGI: > 100 µM
K-562 leukemia
  TGI: > 100 µM
SK-MEL-5 melanoma
  TGI: > 100 µM
EKVX NSCLC
  TGI: > 100 µM
COLO 205 colon
  TGI: > 100 µM
SK-MEL-28 melanoma
  TGI: > 100 µM
RXF 393 renal
  TGI: > 100 µM
NCI-H460 lung
  TGI: > 100 µM
A498 renal
  TGI: > 100 µM
SF-539 CNS
  TGI: > 100 µM
SK-OV-3 ovarian
  TGI: > 100 µM
HCC-2998 colon
  TGI: > 100 µM
DU-145 prostate
  TGI: > 100 µM
SW-620 colon
  TGI: > 100 µM
MDA-N
  TGI: > 100 µM
TK-10 renal
  TGI: > 100 µM
MDA-MB-231 breast
  TGI: > 100 µM
SR leukemia
  TGI: > 100 µM
MOLT-4 leukemia
  TGI: > 100 µM
RPMI-8226 leukemia
  TGI: > 100 µM
SNB-75 CNS
  TGI: > 100 µM
BT-549 breast
  TGI: > 100 µM
OVCAR-3 ovarian
  TGI: > 100 µM
A549 NSCLC
  TGI: > 100 µM
SF-295 CNS
  TGI: > 100 µM
UACC-257 melanoma
  TGI: > 100 µM
OVCAR-4 ovarian
  TGI: > 100 µM
U251 CNS
  TGI: > 100 µM
OVCAR-5 ovarian
  TGI: > 100 µM
HCT-15 colon
  TGI: > 100 µM
NCI-H522 lung
  TGI: > 100 µM
HOP-92 NSCLC
  TGI: > 100 µM
MCF7 breast
  TGI: > 100 µM
HCT-116 colon
  TGI: > 100 µM
SNB-19 CNS
  TGI: > 100 µM
HT29 colon
  TGI: > 100 µM
UO-31 renal
  TGI: > 100 µM
MALME-3M melanoma
  TGI: > 100 µM
786-0 renal
  TGI: > 100 µM
T-47D breast
  TGI: > 100 µM
NCI-H23 lung
  TGI: > 100 µM
M14 melanoma
  TGI: > 100 µM
LOX IMVI melanoma
  TGI: > 100 µM
NCI/ADR-RES ovarian
  TGI: > 100 µM
ACHN renal
  TGI: > 100 µM

## CC(C)C1CSC2N1C(=O)C2(OCc1ccccc1)C1CC1 (stereo unspecified)
SF-268 CNS
  TGI: > 100 µM
HOP-62 NSCLC
  TGI: > 100 µM
HS 578T breast
  TGI: > 100 µM
CAKI-1 renal
  TGI: > 100 µM
PC-3 prostate
  TGI: > 100 µM
SN12C renal
  TGI: > 100 µM
MDA-MB-435
  TGI: > 100 µM
IGROV1 ovarian
  TGI: > 100 µM
KM12 colon
  TGI: > 100 µM
OVCAR-8 ovarian
  TGI: > 100 µM
UACC-62 melanoma
  TGI: > 100 µM
NCI-H226 lung
  TGI: > 100 µM
CCRF-CEM leukemia
  TGI: > 100 µM
K-562 leukemia
  TGI: > 100 µM
HL-60(TB) leukemia
  TGI: > 100 µM
SK-MEL-5 melanoma
  TGI: > 100 µM
EKVX NSCLC
  TGI: > 100 µM
COLO 205 colon
  TGI: > 100 µM
SK-MEL-28 melanoma
  TGI: > 100 µM
RXF 393 renal
  TGI: > 100 µM
NCI-H460 lung
  TGI: > 100 µM
A498 renal
  TGI: > 100 µM
SF-539 CNS
  TGI: > 100 µM
SK-OV-3 ovarian
  TGI: > 100 µM
HCC-2998 colon
  TGI: > 100 µM
DU-145 prostate
  TGI: > 100 µM
SW-620 colon
  TGI: > 100 µM
MDA-N
  TGI: > 100 µM
TK-10 renal
  TGI: > 100 µM
MDA-MB-231 breast
  TGI: > 100 µM
SR leukemia
  TGI: > 100 µM
MOLT-4 leukemia
  TGI: > 100 µM
RPMI-8226 leukemia
  TGI: > 100 µM
SNB-75 CNS
  TGI: > 100 µM
BT-549 breast
  TGI: > 100 µM
OVCAR-3 ovarian
  TGI: > 100 µM
A549 NSCLC
  TGI: > 100 µM
SF-295 CNS
  TGI: > 100 µM
UACC-257 melanoma
  TGI: > 100 µM
OVCAR-4 ovarian
  TGI: > 100 µM
U251 CNS
  TGI: > 100 µM
OVCAR-5 ovarian
  TGI: > 100 µM
HCT-15 colon
  TGI: > 100 µM
NCI-H522 lung
  TGI: > 100 µM
HOP-92 NSCLC
  TGI: > 100 µM
MCF7 breast
  TGI: > 100 µM
HCT-116 colon
  TGI: > 100 µM
SNB-19 CNS
  TGI: > 100 µM
HT29 colon
  TGI: > 100 µM
UO-31 renal
  TGI: > 100 µM
MALME-3M melanoma
  TGI: > 100 µM
786-0 renal
  TGI: > 100 µM
T-47D breast
  TGI: > 100 µM
NCI-H23 lung
  TGI: > 100 µM
M14 melanoma
  TGI: > 100 µM
LOX IMVI melanoma
  TGI: > 100 µM
NCI/ADR-RES ovarian
  TGI: > 100 µM
ACHN renal
  TGI: > 100 µM
